Measurements as given in patent US20250268860A1, “COMPOSITION FOR USE IN THE CUTANEOUS SYNTHESIS OF HYALURONIC ACID, IN AN IMMUNO-CUTANEOUS RESPONSE AND TO IMPROVE SKIN” (JR, priority 2021, published 2025).
Where two headings read alike, the source gives them in different places.

What was measured:
[1] = system: hyaluronic acid synthesis; test: Hyaluronic acid assay (ELISA) in fibroblast culture supernatant; assay type: cell-based, human
Description: At confluence, the fibroblasts were trypsinized and seeded in 6-well plates at 0.08×10^6 cells per well in DMEMc 10% FCS. After 24 hours of culturing, the medium was replaced with DMEMc 1% FCS.
After 24 hours of culturing, 2 ml of medium with or without active agent were added. The active agents were diluted to the concentrations chosen following cytotoxicity tests in DMEMc 1% FCS culture medium.
Aliquots were stored at −80° C. until assayed. The cell monolayers were washed with PBS and 500 μl of 0.1N NaOH were added. The cell lyzate was stored at −20° C. until protein assay.
The amount of hyaluronic acid in the various samples was determined by ELISA (Enzyme-Linked Immunosorbent Assay) using a TECO@kit. This kit is a sensitive sandwich assay which uses microplates coated with hyaluronic acid binding protein (HABP) and HRP-conjugated HABP binding protein for detection. The HRP-conjugated HABP binding protein binds to the hyaluronic acid contained in the sample, and then reacts with the substrate. The color intensity is proportional to the HA content of the sample.
100 μl of standard or 100 μl of sample diluted to 1:50 were added to each well. The plate was incubated for 2 hours at room temperature, with agitation. After washing the plate, 100 μl of HRBP-HRP conjugate were added to each well. The plate was incubated for 30 minutes at room temperature, with agitation. After washing the wells, 100 μl of TMB substrate were added. The plate was incubated for 30 minutes at room temperature, in the dark and with agitation. The reaction was stopped by adding 100 μl of stop solution per well. Optical density readings were immediately taken at 450 nm.
The calibration curve was plotted, representing OD as a function of hyaluronic acid concentration. A regression curve was then plotted and the amounts of hyaluronic acid contained in the samples were determined by means of the equation of this regression curve. The hyaluronic acid concentrations are expressed in ng/mg of protein.
A calibration range (0-2 mg/ml) was established using a solution of bovine serum albumin. 20 μl of each point of the calibration or sample range were placed in duplicate in the wells of a 96-well plate. 200 μl of Pierce reagent were added and the plate was incubated for 30 minutes at 37° C. The absorbance was read immediately at 550 nm (MultiSkan FC spectrophotometer, Thermo).
Significance is retained only when p<0.05.

beta-defensin-2 (hBD-2) = test: hBD-2 release from keratinocytes, ELISA; assay type: cell-based, human; conditions: for hBD-2 % control / hBD-2 Mean / hBD-2: 72 hours; for hBD-2: single values
Description: More specifically, the effect of these compounds was evaluated on the release of beta-defensin-2 (hBD -2) by Enzyme-Linked Immunosorbent Assay (ELISA). Prior to this, a preliminary cytotoxicity test was performed using a standard WST-8 reduction assay to determine the concentrations to be tested.
(§1) • Cell type: Normal human epidermal keratinocytes (NHEK), used at the third passage • Culture conditions: 37° C., 5% CO2 • Culture medium: Keratinocyte-SFM optimized for the test, supplemented with Epidermal Growth Factor and pituitary extract
The keratinocytes were seeded in 96-well plates and cultured in culture medium for 24 hours. The medium was then replaced with culture medium containing or not (control) the compounds to be tested or the reference cytokine mixture (IL-17+IL-22+TNF-α at 5 ng/ml each). The cells were then incubated for 72 hours. All the experimental conditions were performed in n=3.
The inter-group comparisons were made using the unpaired bilateral Student's t-test. The statistical analyses can be interpreted if n>5; however for n<5, the calculated data are provided purely as a guide.

[2] = system: Fibroblasts from healthy skin (FS)
Description: Fibroblasts from healthy skin (FS) are cultured from biopsies performed on a patient, on a skin explant derived from surgery and considered as surgical waste. The conventional explantation technique is used for fibroblast extraction. The explants are cultured in Dulbecco's modified Eagle's medium supplemented with 10% fetal calf serum (FCS), 40 mg/l gentamicin and 2 mg/l fungizone (DMEMc) at 37° C., in a humid atmosphere and in the presence of 5% CO2.
The study of cell viability in the presence of the active principles to be tested is performed by means of an MTT assay. MTT is a tetrazolium salt whose ring is transformed by mitochondrial dehydrogenases. The yellow substrate is transformed into a dark blue product by living cells, but not by dead cells or the culture medium. This colorimetric test allows the color intensity to be linked to the number of living cells. The absorbance at 550 nm is directly proportional to the number of living fibroblasts. Cytotoxicity occurs when the cell viability is less than 80% relative to the control.
The active agents in powder form were taken up in 100% DMSO so as to obtain the stock solutions. […] After 24 hours of culturing, the active principles to be tested were added. Twelve concentrations of each active principle were tested (n=10/concentration). The active agents were dissolved directly in the culture medium from the stock solutions. After 24 hours of culturing in the presence of the active agents, an MTT assay was performed.
Following the cytotoxicity results of the two active agents alone, a second cytotoxicity test was performed with the mixture. For each mixture, three concentrations were tested (n=10/concentration): • C1: highest concentration • C2: ½ dilution • C3: […]
The values are expressed as a percentage relative to the control, plus or minus the standard error of the distribution of the means (SEM). A one-factor analysis of variance is performed, followed if necessary by a Fisher test. Significance is retained only when p<0.05.

[3] = system: Normal human epidermal keratinocytes (NHEK); test: Preliminary test of cytotoxicity, WST-8 reduction and morphological observations; assay type: cell-based; conditions: 72 h
Description: as §1
• Cell type: NHEK in culture medium • Incubation time: 72 hours • Evaluation parameters: WST-8 reduction and morphological microscopic observations.
At the end of the treatment, the cells were incubated in the presence of WST-8 (a highly water-soluble tetrazolium salt), reduced to a water-soluble, orange-colored product (formazan) by succinate dehydrogenase (a mitochondrial enzyme). This transformation is proportional to the number of living cells and their metabolic activity. The optical density (OD) was measured with a spectrophotometer at 450 nm (VERSAmax, Molecular Devices).
Percentage viability: viability (%)=(OD compound/OD control)×100

## O=C(/C=C/c1ccc(O)c(O)c1)O[C@@H]1C[C@](O)(C(=O)O)C[C@@H](O)[C@H]1O [GPCB07, chlorogenic acid]
[1]; 100 μM, FIG. 4
  improvement of hyaluronic acid (HA) content of skin cells reported in Ref. 18: could not be reproduced
[1]; tested alone, 100 μM, 48 hours, relative to control
  decrease of hyaluronic acid synthesis: about 20%
beta-defensin-2 (hBD-2)
  effect on beta-defensin-2 release from human epidermal keratinocytes: no effect
beta-defensin-2 (hBD-2); 0.0033%
  hBD-2 % control: <73 % control
  hBD-2 Mean: <8 pg/mL
  hBD-2: <8 pg/mL
beta-defensin-2 (hBD-2); 0.01%
  hBD-2 % control: <73 % control
  hBD-2 Mean: <8 pg/mL
  hBD-2: <8 pg/mL
beta-defensin-2 (hBD-2); 0.03%
  hBD-2 % control: <73 % control
  hBD-2 Mean: <8 pg/mL
  hBD-2: <8 pg/mL
[2]; female, human, 24 h
  maximum non-cytotoxic concentration retained: 100 µM
[2]; female, human, 24 h, 0.5 μM
  Viability (%/Ctrl): 95.14 %/Ctrl
[2]; female, human, 24 h, 1 μM
  Viability (%/Ctrl): 94.89 %/Ctrl
[2]; female, human, 24 h, 5 μM
  Viability (%/Ctrl): 101.75 %/Ctrl
[2]; female, human, 24 h, 10 μM
  Viability (%/Ctrl): 89.63 %/Ctrl
[2]; female, human, 24 h, 25 μM
  Viability (%/Ctrl): 100.28 %/Ctrl
[2]; female, human, 24 h, 50 μM
  Viability (%/Ctrl): 99.64 %/Ctrl
[2]; female, human, 24 h, 75 μM
  Viability (%/Ctrl): 103.28 %/Ctrl
[2]; female, human, 24 h, 100 μM
  Viability (%/Ctrl): 100.41 %/Ctrl

## O=C(O)[C@H]1O[C@@H](Oc2cc3oc(-c4ccccc4)cc(=O)c3c(O)c2O)[C@H](O)[C@@H](O)[C@@H]1O [GPCB09, baicalin]
[1]; 25 μM, FIG. 4
  effect on HA content relative to a control test: improve HA content
[1]; tested alone, 25 μM, 48 hours, relative to control
  increase of hyaluronic acid synthesis: about 30%
[3]; 0.0004 mg/mL
  Viability Mean (%): 99%
[3]; 0.0012 mg/mL
  Viability Mean (%): 96%
[3]; 0.0037 mg/mL
  Viability Mean (%): 87%
[3]; 0.011 mg/mL
  Viability Mean (%): 66%
[3]; 0.033 mg/mL
  Viability Mean (%): 35%
[3]; 0.098 mg/mL
  Viability Mean (%): 21%
[3]; 0.287 mg/mL
  Viability Mean (%): 19%
[3]; 0.38 mg/mL
  Viability Mean (%): 1%
beta-defensin-2 (hBD-2)
  effect on beta-defensin-2 release from human epidermal keratinocytes: no effect
beta-defensin-2 (hBD-2); 0.0001%
  hBD-2 % control: <73 % control
  hBD-2 Mean: <8 pg/mL
  hBD-2: <8 pg/mL
beta-defensin-2 (hBD-2); 0.0003%
  hBD-2 % control: <73 % control
  hBD-2 Mean: <8 pg/mL
  hBD-2: <8 pg/mL
beta-defensin-2 (hBD-2); 0.001%
  hBD-2 % control: <73 % control
  hBD-2 Mean: <8 pg/mL
  hBD-2: <8 pg/mL
[2]; 0.5 μM, 24 hours
  Viability (%/Ctrl): 99.82 %/Ctrl
[2]; 1.0 μM, 24 hours
  Viability (%/Ctrl): 98.27 %/Ctrl
[2]; 5.0 μM, 24 hours
  Viability (%/Ctrl): 101.92 %/Ctrl
[2]; 10.0 μM, 24 hours
  Viability (%/Ctrl): 100.76 %/Ctrl
[2]; 50.0 μM, 24 hours
  Viability (%/Ctrl): 86.65 %/Ctrl
[2]; 100.00 μM, 24 hours
  Viability (%/Ctrl): 21.80 %/Ctrl
[2]; 75 and 100 μM
  decrease in cell viability relative to the control: very significant
[2]; 24 hours, MTT
  concentration causing a significant reduction in cell viability relative to the control: ≥ 50 µM
[2]; active agent alone
  maximum non-cytotoxic concentration retained: 25 µM
